Laboratory results as given in patent publication US9730445B2, “Herbicidal compositions comprising 4-amino-3-chloro-5-fluoro-6-(4-chloro-2-fluoro-3-methoxyphenyl) pyridine-2-carboxylic acid or a derivative thereof and fungicides” (DOW AGROSCIENCES LLC, priority 2013, dated 2017).
“And” between values parts separate entries of the source, which are not always exact repeats. Equal values may be shown once.

Assays:
Assay in all cases: Postemergence foliar-applied weed control, direct-seeded rice (greenhouse)
CYPES = assay type: in vivo, Cyperus esculentus L. (yellow nutsedge)
Description: (§1) Seeds or nutlets of the desired test plant species were planted in a soil matrix prepared by mixing aloam or sandy loam soil (e.g., 28.6 percent silt, 18.8 percent clay, and 52.6 percent sand, with a pH of about 5.8 and an organic matter content of about 1.8 percent) and calcareous grit in an 80 to 20 ratio. The soil matrix was contained in plastic pots with a volume of 1 quart and a surface area of 83.6 square centimeters (cm^2). […] The plants were grown for 8-22 days in a greenhouse with an approximate 14 hour (h) photoperiod which was maintained at about 29° C. during the day and 26° C. during the night. Nutrients (Peters Excel® 15-5-15 5-Ca 2-Mg and iron chelate) were applied in the irrigation solution as needed and water was added on a regular basis. Supplemental lighting was provided with overhead metal halide 1000-Watt lamps as necessary. The plants were employed for testing when they reached the first through fourth true leaf stage.
(§2) Treatments consisted of the acid or esters of 4-amino-3-chloro-5-fluoro-6-(4-chloro-2-fluoro-3-methoxy-phenyl)pyridine-2-carboxylic acid (Compound A), each formulated as an SC (suspension concentrate), and various fungicidal components alone and in combination. Forms of compound A were applied on an acid equivalent basis.
(§3) For treatments comprised of formulated compounds, measured amounts of compounds were placed individually in 25 mL glass vials and diluted in a volume of 1.25% volume per volume (v/v) Agri-Dex® crop oil concentrate to obtain 12× stock solutions. […] Application solutions were prepared by adding an appropriate amount of each stock solution (e.g., 1 mL) and diluted to the appropriate final concentrations with the addition of […] of an aqueous mixture of 1.25% (v/v) crop oil concentrate so that the final spray solutions contained 1.25+/−0.05% (v/v) crop oil concentrate.
(§4) For treatments comprised of technical compounds, weighed amounts can be placed individually in 25 mL glass vials and dissolved in a volume of 97:3 volume per volume (v/v) acetone/dimethyl sulfoxide (DMSO) to obtain 12× stock solutions. […] When technical materials are used, the concentrated stock solutions can be added to the spray solutions so that the final acetone and DMSO concentrations of the application solutions are 16.2% and 0.5%, respectively.
(§5) As required, additional water and/or 97:3 v/v acetone/DMSO was added to individual application solutions so that the final acetone and DMSO concentrations of the application solutions being compared were 8.1% and 0.25%, respectively
(§6) All stock solutions and applications solutions were visually inspected for compound compatibility prior to application. Spray solutions were applied to the plant material with an overhead Mandel track sprayer equipped with 8002E nozzles calibrated to deliver 187 L/ha over an application area of 0.503 square meters (m^2) at a spray height of 18 to 20 inches (46 to 50 cm) above average plant canopy height. Control plants were sprayed in the same manner with the solvent blank.
(§7) The treated plants and control plants were placed in a greenhouse as described above and watered by sub-irrigation to prevent wash-off of the test compounds. After approximately 3 weeks, the condition of the test plants as compared with that of the untreated plants was determined visually and scored on a scale of 0 to 100 percent where 0 corresponds to no injury or growth inhibition and 100 corresponds to complete kill. […]

CYPIR = assay type: in vivo, Cyperus iria L. (rice flatsedge); details: 21 DAA
ECHCG = assay type: in vivo, Echinochloa crus-galli (L.) P. Beauv. (barnyardgrass)
ECHCO = assay type: in vivo, Echinochloa colonum (L.) LINK (junglerice)
Description: Seeds or nutlets of the desired test plant species were planted in a soil matrix prepared by mixing aloam or sandy loam soil (e.g., 28.6 percent silt, 18.8 percent clay, and 52.6 percent sand, with a pH of about 5.8 and an organic matter content of about 1.8 percent) and calcareous grit in an 80 to 20 ratio. The soil matrix was contained in plastic pots with a volume of 1 quart and a surface area of 83.6 square centimeters (cm^2). When required to ensure good germination and healthy plants, a fungicide treatment and/or other chemical or physical treatment was applied. The plants were grown for 8-22 days in a greenhouse with an approximate 14 hour (h) photoperiod which was maintained at about 29° C. during the day and 26° C. during the night. Nutrients (Peters Excel® 15-5-15 5-Ca 2-Mg and iron chelate) were applied in the irrigation solution as needed and water was added on a regular basis. Supplemental lighting was provided with overhead metal halide 1000-Watt lamps as necessary. The plants were employed for testing when they reached the first through fourth true leaf stage.
as §2
Treatment requirements were calculated based upon the rates being tested, the concentration of active ingredient or acid equivalent in the formulation and a 12 milliliter (mL) application volume at a rate of 187 liters per hectare (L/ha).
as §3, §4, §5, §6, §7

ECHOR = assay type: in vivo, Echinochloa oryzoides (Ard.) Fritsch (early watergrass); details: r78-80 ester 8/16/32 g ae/ha alone, r81-83 difenoconazole 50/100/200 g ai/ha alone, r84-92 ester 8/16/32 at each of 50, 100, 200
Description: as §1, §2
For treatments comprised of formulated compounds, measured amounts of compounds were placed individually in 25 mL glass vials and diluted in a volume of 1.25% volume per volume (v/v) Agri-Dex® crop oil concentrate to obtain 12× stock solutions. […]
as §7

IPOHE = assay type: in vivo, Ipomoea hederacea (L.) Jacq. (ivyleaf morningglory); details: r10-12 ester 4.38/8.75/17.5 g ae/ha alone, r13 difenoconazole 200 g ai/ha alone, r14-16 ester 4.38/8.75/17.5 + 200
[1] = r9-11 ester 8/16/32 g ae/ha alone, r12-14 hexaconazole 25/50/100 g ai/ha alone, r15-23 ester 8/16/32 at each of 25, 50, 100
[2] = r38-39 ester 8/16 g ae/ha alone, r40 isotianil 380 g ai/ha alone, r41-42 ester 8/16 + 380

COc1c(Cl)ccc(-c2nc(C(=O)OCc3ccccc3)c(Cl)c(N)c2F)c1F [Compound A Benzyl Ester]
Visual Weed Control (%) - 21 DAA CYPES Obs (CYPES; r26 ester 8 g ae/ha alone, r27-29 phthalide 100/200/300 g ai/ha alone, r30-32 ester 8 + 100/200/300): 10% | Visual Weed Control (%)—21 DAA CYPES Obs (CYPES; r45 ester 8 g ae/ha alone, r46-48 kasugamycin 17.5/35/70 g ai/ha alone, r49-51 ester 8 + 17.5/35/70): 70% | Visual Weed Control (%) - 21 DAA CYPIR Obs (CYPIR; r23-24 ester 16/32 g ae/ha alone, r25 pyroquilon 925 g ai/ha alone, r26-27 ester 16/32 + 925): 85% and 99% | Visual Weed Control (%) - 21 DAA CYPIR Obs (CYPIR; r26-27 ester 16/32 g ae/ha alone, r28-29 isoprothiolane 266/533 g ai/ha alone, r30-33 ester 16/32 at each of 266, 533): 85% and 99% | Visual Weed Control (%)—21 DAA CYPIR Obs (CYPIR; r29-30 ester 8/16 g ae/ha alone, r31-33 kasugamycin 17.5/35/70 g ai/ha alone, r34-39 ester 8/16 at each of 17.5, 35, 70): 50% and 70% | Visual Weed Control (%)—21 DAA CYPIR Obs (CYPIR; r45 ester 8 g ae/ha alone, r46-48 hexaconazole 25/50/100 g ai/ha alone, r49-51 ester 8 + 25/50/100): 35% | Visual Weed Control (%)—21 DAA ECHCG Obs (ECHCG; [1]): 85% and 90% and 45% | Visual Weed Control (%)—21 DAA ECHCG Obs (ECHCG; [2]): 45% and 85% | Visual Weed Control (%) - 21 DAA ECHCG Obs (ECHCG; r58-60 ester 8/16/32 g ae/ha alone, r61-63 difenoconazole 50/100/200 g ai/ha alone, r64-72 ester 8/16/32 at each of 50, 100, 200): 70% and 60% and 90% | Visual Weed Control (%) - 19 DAA ECHCO Obs (ECHCO; r9-11 ester 8/16/32 g ae/ha alone, r12-13 carbendazim 125/250 g ai/ha alone, r14-19 ester 8/16/32 at each of 125, 250): 90% and 95% and 65% | Visual Weed Control (%) - 19 DAA ECHCO Obs (ECHCO; r9-11 ester 8/16/32 g ae/ha alone, r12-13 flutolanil 280/560 g ai/ha alone, r14-19 ester 8/16/32 at each of 280, 560): 90% and 95% and 65% | Visual Weed Control (%)—21 DAA ECHCO Obs (ECHCO; [1]): 65% and 85% and 50% | Visual Weed Control (%)—21 DAA ECHCO Obs (ECHCO; [2]): 50% and 65% | Visual Weed Control (%) - 21 DAA ECHOR Obs (ECHOR): 45% and 43% and 70% | Visual Weed Control (%) - 21 DAA IPOHE Obs (IPOHE): 10% and 20%
